Source: article PMC5218480 (PLoS ONE, 2017)

Tested on: MV-4-11 cells
Test: Gene expression microarray analysis (Affymetrix PrimeView) and GSEA
Assay type: cell-based, human
Set-up: RFU PODN (11730768_x_at) / Fold change /veh PODN (11730768_x_at) / RFU LINC00158 (11744669_a_at) / Fold change /veh LINC00158 (11744669_a_at) / RFU DUSP10 (11751237_a_at) / Fold change /veh DUSP10 (11751237_a_at) / RFU ID3 (11757404_x_at) / Fold change /veh ID3 (11757404_x_at) / RFU PLEKHG5 (11737974_s_at) / Fold change /veh PLEKHG5 (11737974_s_at) / RFU LRRC4B (11730491_at) / Fold change /veh LRRC4B (11730491_at) / RFU GIMAP4 (11747438_a_at) / Fold change /veh GIMAP4 (11747438_a_at) / RFU KRT8 (11758183_x_at) / Fold change /veh KRT8 (11758183_x_at) / RFU CNN1 (11734310_a_at) / Fold change /veh CNN1 (11734310_a_at) / RFU VPS37D (11726825_at) / Fold change /veh VPS37D (11726825_at) / RFU C10orf10 (11716522_x_at) / Fold change /veh C10orf10 (11716522_x_at) / RFU KIR2DL2 /// KIR2DL4 /// KIR2DL5A /// KIR2DL5B /// KIR2DS1 /// KIR2DS2 /// KIR2DS3 /// KIR2DS4 /// KIR3DL3 /// KIR3DL3 /// KIR3DS1 (11738374_at) / Fold change /veh KIR2DL2 /// KIR2DL4 /// KIR2DL5A /// KIR2DL5B /// KIR2DS1 /// KIR2DS2 /// KIR2DS3 /// KIR2DS4 /// KIR3DL3 /// KIR3DL3 /// KIR3DS1 (11738374_at) / RFU C1QL1 (11718748_at) / Fold change /veh C1QL1 (11718748_at) / RFU TMPRSS4 (11747572_a_at) / Fold change /veh TMPRSS4 (11747572_a_at) / RFU HAMP (11756126_x_at) / Fold change /veh HAMP (11756126_x_at) / RFU RNFT2 (11725882_a_at) / Fold change /veh RNFT2 (11725882_a_at) / RFU NR4A2 (11747474_a_at) / Fold change /veh NR4A2 (11747474_a_at) / RFU ABCC12 (11746883_a_at) / Fold change /veh ABCC12 (11746883_a_at) / RFU TMEM136 (11760407_x_at) / Fold change /veh TMEM136 (11760407_x_at) / RFU CLDN22 /// WWC2 (11732394_at) / Fold change /veh CLDN22 /// WWC2 (11732394_at) / RFU HLA-DPB1 (11760878_x_at) / Fold change /veh HLA-DPB1 (11760878_x_at) / RFU SPINT1 (11716480_a_at) / Fold change /veh SPINT1 (11716480_a_at) / RFU GAP43 (11754022_s_at) / Fold change /veh GAP43 (11754022_s_at) / RFU A4GNT (11735810_at) / Fold change /veh A4GNT (11735810_at) / RFU PRB3 (11715151_x_at) / Fold change /veh PRB3 (11715151_x_at) / RFU TUBB4B (11761932_at) / Fold change /veh TUBB4B (11761932_at) / RFU CAPN14 (11732068_a_at) / Fold change /veh CAPN14 (11732068_a_at) / RFU TMCC2 (11721928_a_at) / Fold change /veh TMCC2 (11721928_a_at) / RFU IRGQ (11745062_a_at) / Fold change /veh IRGQ (11745062_a_at) / RFU FAM174B (11720279_a_at) / Fold change /veh FAM174B (11720279_a_at) / RFU TMPRSS4 (11748680_a_at) / Fold change /veh TMPRSS4 (11748680_a_at) / RFU FAM212B (11763350_a_at) / Fold change /veh FAM212B (11763350_a_at) / RFU PLEKHG5 (11743358_a_at) / Fold change /veh PLEKHG5 (11743358_a_at) / RFU ZSCAN30 (11745921_a_at) / Fold change /veh ZSCAN30 (11745921_a_at) / RFU CMKLR1 (11741424_a_at) / Fold change /veh CMKLR1 (11741424_a_at) / RFU LOC101060620 /// MAPK8IP1 (11723275_at) / Fold change /veh LOC101060620 /// MAPK8IP1 (11723275_at) / RFU SPTSSB (11747773_x_at) / Fold change /veh SPTSSB (11747773_x_at) / RFU PRSS12 (11739890_at) / Fold change /veh PRSS12 (11739890_at) / RFU BIN1 (11741810_x_at) / Fold change /veh BIN1 (11741810_x_at) / RFU WNT11 (11732464_a_at) / Fold change /veh WNT11 (11732464_a_at) / RFU C10orf10 (11716521_a_at) / Fold change /veh C10orf10 (11716521_a_at) / RFU C5orf56 (11738089_at) / Fold change /veh C5orf56 (11738089_at) / RFU CYB561 (11721691_x_at) / Fold change /veh CYB561 (11721691_x_at) / RFU ANKRD19P (11752326_a_at) / Fold change /veh ANKRD19P (11752326_a_at) / RFU OR2T12 /// OR2T33 /// OR2T8 (11738714_s_at) / Fold change /veh OR2T12 /// OR2T33 /// OR2T8 (11738714_s_at) / RFU VCAN (11748164_a_at) / Fold change /veh VCAN (11748164_a_at) / RFU JSRP1 (11732532_at) / Fold change /veh JSRP1 (11732532_at) / RFU KRTAP10-11 (11738290_x_at) / Fold change /veh KRTAP10-11 (11738290_x_at) / RFU MYO3A (11730013_a_at) / Fold change /veh MYO3A (11730013_a_at) / RFU EBF3 (11725865_a_at) / Fold change /veh EBF3 (11725865_a_at) / RFU CAMK2N1 (11719241_x_at) / Fold change /veh CAMK2N1 (11719241_x_at) / RFU C5orf56 (11738088_a_at) / Fold change /veh C5orf56 (11738088_a_at) / RFU OLFML3 (11715873_a_at) / Fold change /veh OLFML3 (11715873_a_at) / RFU LOC100653217 /// NTM (11731650_a_at) / Fold change /veh LOC100653217 /// NTM (11731650_a_at) / RFU MAPK11 (11762145_a_at) / Fold change /veh MAPK11 (11762145_a_at) / RFU FIZ1 (11724087_x_at) / Fold change /veh FIZ1 (11724087_x_at) / RFU OASL (11726364_x_at) / Fold change /veh OASL (11726364_x_at) / RFU SOX15 (11748057_x_at) / Fold change /veh SOX15 (11748057_x_at) / RFU CD79A (11719716_a_at) / Fold change /veh CD79A (11719716_a_at) / RFU HIST1H1D (11736915_at) / Fold change /veh HIST1H1D (11736915_at) / RFU CASKIN2 (11723855_a_at) / Fold change /veh CASKIN2 (11723855_a_at) / RFU LOC730098 (11760151_x_at) / Fold change /veh LOC730098 (11760151_x_at) / RFU OR4N2 (11742367_at) / Fold change /veh OR4N2 (11742367_at) / RFU PRRT2 (11749266_a_at) / Fold change /veh PRRT2 (11749266_a_at) / RFU SNX32 (11753110_a_at) / Fold change /veh SNX32 (11753110_a_at) / RFU CDHR5 (11726645_a_at) / Fold change /veh CDHR5 (11726645_a_at) / RFU RCAN1 (11760418_a_at) / Fold change /veh RCAN1 (11760418_a_at) / RFU FAM167A (11723789_a_at) / Fold change /veh FAM167A (11723789_a_at) / RFU FAM26E (11764081_at) / Fold change /veh FAM26E (11764081_at) / RFU ISYNA1 (11749810_s_at) / Fold change /veh ISYNA1 (11749810_s_at) / RFU ACY1 (11761880_at) / Fold change /veh ACY1 (11761880_at) / RFU 11764098_at / Fold change /veh 11764098_at / RFU SAMD14 (11745864_x_at) / Fold change /veh SAMD14 (11745864_x_at) / RFU NPB (11741838_a_at) / Fold change /veh NPB (11741838_a_at) / RFU TMPRSS6 (11731388_a_at) / Fold change /veh TMPRSS6 (11731388_a_at) / RFU KRTAP10-2 (11738614_at) / Fold change /veh KRTAP10-2 (11738614_at) / RFU ARHGAP8 /// PRR5-ARHGAP8 (11727945_x_at) / Fold change /veh ARHGAP8 /// PRR5-ARHGAP8 (11727945_x_at) / RFU KRTAP5-7 /// NADSYN1 (11734609_at) / Fold change /veh KRTAP5-7 /// NADSYN1 (11734609_at) / RFU RASL12 (11751679_a_at) / Fold change /veh RASL12 (11751679_a_at) / RFU CDKN2B (11736163_a_at) / Fold change /veh CDKN2B (11736163_a_at) / RFU PRF1 (11729649_at) / Fold change /veh PRF1 (11729649_at) / RFU, ZNF638 /// ZNF638-IT1 / Fold change vs veh, ZNF638 /// ZNF638-IT1 / RFU, PANK3 / Fold change vs veh, PANK3 / RFU, SH3YL1 / Fold change vs veh, SH3YL1 / RFU, ZEB2 / Fold change vs veh, ZEB2 / RFU, NRIP1 / Fold change vs veh, NRIP1 / RFU, PTTG1IP / Fold change vs veh, PTTG1IP / RFU, CAPN2 / Fold change vs veh, CAPN2 / RFU, MED14 / Fold change vs veh, MED14 / RFU, SNORA58 / Fold change vs veh, SNORA58 / RFU, C1orf63 / Fold change vs veh, C1orf63 / RFU, LRRFIP1 / Fold change vs veh, LRRFIP1 / RFU, NDUFAF7 / Fold change vs veh, NDUFAF7 / RFU, SLC12A2 / Fold change vs veh, SLC12A2 / RFU, IBTK / Fold change vs veh, IBTK / RFU, ESF1 / Fold change vs veh, ESF1 / Fold change vs veh, TMEM50B / RFU, TAOK1 / Fold change vs veh, TAOK1 / RFU, ACBD3 / Fold change vs veh, ACBD3 / RFU, TMA16 / Fold change vs veh, TMA16 / RFU, RWDD3 / Fold change vs veh, RWDD3 / RFU, BCAT1 / Fold change vs veh, BCAT1 / RFU, EDEM3 / Fold change vs veh, EDEM3 / RFU, TMEM33 / Fold change vs veh, TMEM33 / RFU, WDR75 / Fold change vs veh, WDR75 / RFU, AHCTF1 / Fold change vs veh, AHCTF1 / RFU, TFRC / Fold change vs veh, TFRC / RFU, ZDHHC17 / Fold change vs veh, ZDHHC17 / RFU, NOM1 / Fold change vs veh, NOM1 / RFU, ARL8B / Fold change vs veh, ARL8B / RFU, ZBTB11 / Fold change vs veh, ZBTB11 / RFU, TAMM41 / Fold change vs veh, TAMM41 / RFU, KIAA1704 /// LOC100996395 / Fold change vs veh, KIAA1704 /// LOC100996395 / RFU, ING1 / Fold change vs veh, ING1 / RFU, TRMT61B / Fold change vs veh, TRMT61B / RFU, FUBP3 / Fold change vs veh, FUBP3 / RFU, TP53 / Fold change vs veh, TP53 / RFU, TNKS2 / Fold change vs veh, TNKS2 / RFU, ZFP14 / Fold change vs veh, ZFP14 / RFU, ACTR2 / Fold change vs veh, ACTR2 / RFU, PPP3R1 / Fold change vs veh, PPP3R1 / RFU, PIK3R1 / Fold change vs veh, PIK3R1 / RFU, HNRNPA1 / Fold change vs veh, HNRNPA1 / RFU, RNF170 / Fold change vs veh, RNF170 / RFU, ZNF28 / Fold change vs veh, ZNF28 / RFU, RNGTT / Fold change vs veh, RNGTT / RFU, OGT / Fold change vs veh, OGT / RFU, BRD1 / Fold change vs veh, BRD1 / RFU, MARS / Fold change vs veh, MARS / RFU, ZNF655 / Fold change vs veh, ZNF655 / RFU, FAHD1 / Fold change vs veh, FAHD1 / RFU, BDP1 / Fold change vs veh, BDP1 / RFU, LRRCC1 / Fold change vs veh, LRRCC1 / RFU, ARID1A / Fold change vs veh, ARID1A / RFU, ZNF146 / Fold change vs veh, ZNF146 / RFU, ZNF330 / Fold change vs veh, ZNF330 / RFU, GPN3 / Fold change vs veh, GPN3 / RFU, C9orf123 / Fold change vs veh, C9orf123 / RFU, N4BP2L2 / Fold change vs veh, N4BP2L2 / RFU, ARFIP1 / Fold change vs veh, ARFIP1 / RFU, FAM179B / Fold change vs veh, FAM179B / RFU, BCL10 / Fold change vs veh, BCL10 / RFU, UHRF1BP1L / Fold change vs veh, UHRF1BP1L / RFU, BET1 / Fold change vs veh, BET1 / RFU, CNOT2 / Fold change vs veh, CNOT2 / RFU, ZNF268 / Fold change vs veh, ZNF268 / Fold change vs veh, ZNF507 / RFU, DGCR2 / Fold change vs veh, DGCR2 / RFU, WDSUB1 / Fold change vs veh, WDSUB1 / Fold change vs veh, HSP90B1 /// MIR3652 / RFU, ADSS / Fold change vs veh, ADSS / RFU, GK / Fold change vs veh, GK / RFU, ZNF148 / Fold change vs veh, ZNF148 / RFU, TAF9 / Fold change vs veh, TAF9 / RFU, SLC1A5 / Fold change vs veh, SLC1A5 / RFU, SLMO2 / Fold change vs veh, SLMO2 / RFU, ABCC4 / Fold change vs veh, ABCC4 / RFU, LOC101060439 /// RAP1B / Fold change vs veh, LOC101060439 /// RAP1B / RFU, RFX7 / Fold change vs veh, RFX7 / RFU, GTPBP10 / Fold change vs veh, GTPBP10 / RFU, CNEP1R1 / Fold change vs veh, CNEP1R1 / RFU, BIVM-ERCC5 /// ERCC5 / Fold change vs veh, BIVM-ERCC5 /// ERCC5 / RFU, ILF3 / Fold change vs veh, ILF3 / RFU 11762660_at / Fold change /veh 11762660_at / RFU VCAN (11757783_s_at) / Fold change /veh VCAN (11757783_s_at) / RFU DDX43 (11728927_at) / Fold change /veh DDX43 (11728927_at) / RFU KRT8 (11758188_x_at) / Fold change /veh KRT8 (11758188_x_at) / RFU NKD1 (11759106_at) / Fold change /veh NKD1 (11759106_at) / RFU SRD5A1 (11742802_a_at) / Fold change /veh SRD5A1 (11742802_a_at) / RFU TPSAB1 /// TPSB2 (11721975_s_at) / Fold change /veh TPSAB1 /// TPSB2 (11721975_s_at) / RFU GSTM3 (11746129_a_at) / Fold change /veh GSTM3 (11746129_a_at) / RFU IL23R (11737362_x_at) / Fold change /veh IL23R (11737362_x_at) / RFU TMEM51 (11727254_a_at) / Fold change /veh TMEM51 (11727254_a_at) / RFU PIWIL2 (11732686_x_at) / Fold change /veh PIWIL2 (11732686_x_at) / RFU ORM1 (11744905_x_at) / Fold change /veh ORM1 (11744905_x_at) / RFU CCDC152 (11743942_at) / Fold change /veh CCDC152 (11743942_at) / RFU ECM1 (11717891_a_at) / Fold change /veh ECM1 (11717891_a_at) / RFU IL23R (11748794_a_at) / Fold change /veh IL23R (11748794_a_at) / RFU TNFAIP8L3 (11732012_x_at) / Fold change /veh TNFAIP8L3 (11732012_x_at) / RFU MBOAT4 (11741988_at) / Fold change /veh MBOAT4 (11741988_at) / RFU 11764193_at / Fold change /veh 11764193_at / RFU TMEM53 (11763286_at) / Fold change /veh TMEM53 (11763286_at) / RFU MAGEB2 (11727129_at) / Fold change /veh MAGEB2 (11727129_at) / RFU TMEM200A (11744735_a_at) / Fold change /veh TMEM200A (11744735_a_at) / RFU CCDC152 (11751479_a_at) / Fold change /veh CCDC152 (11751479_a_at) / RFU FAM211A (11726209_a_at) / Fold change /veh FAM211A (11726209_a_at) / RFU RGS16 (11746705_a_at) / Fold change /veh RGS16 (11746705_a_at) / RFU VCAN (11755009_s_at) / Fold change /veh VCAN (11755009_s_at) / RFU RHOB (11743442_s_at) / Fold change /veh RHOB (11743442_s_at) / RFU RGS16 (11720943_a_at) / Fold change /veh RGS16 (11720943_a_at) / RFU RGS16 (11720944_at) / Fold change /veh RGS16 (11720944_at) / RFU, VPS4B / Fold change vs veh, VPS4B / RFU, CREB1 / Fold change vs veh, CREB1 / RFU, DNAJC13 / Fold change vs veh, DNAJC13 / RFU, GNAQ / Fold change vs veh, GNAQ / RFU, CDK5R1 / Fold change vs veh, CDK5R1 / RFU, ZRANB3 / Fold change vs veh, ZRANB3 / RFU, CUL4A / Fold change vs veh, CUL4A / RFU, CCNY / Fold change vs veh, CCNY / RFU, UFL1 / Fold change vs veh, UFL1 / RFU, COG3 / Fold change vs veh, COG3 / RFU, DIAPH2 / Fold change vs veh, DIAPH2 / RFU, SKA2 / Fold change vs veh, SKA2 / RFU, AFF3 / Fold change vs veh, AFF3 / RFU, LMF1 / Fold change vs veh, LMF1 / RFU, IPO11 / Fold change vs veh, IPO11 / RFU, DFFB / Fold change vs veh, DFFB / RFU, FOXP1 / Fold change vs veh, FOXP1 / RFU, CARD8 / Fold change vs veh, CARD8 / RFU, STRN3 / Fold change vs veh, STRN3 / RFU, ADK / Fold change vs veh, ADK / RFU, RASSF2 / Fold change vs veh, RASSF2 / RFU, WIPF1 / Fold change vs veh, WIPF1 / RFU, LARP1B / Fold change vs veh, LARP1B / RFU, RASA1 / Fold change vs veh, RASA1 / RFU, RB1 / Fold change vs veh, RB1 / RFU, PPFIA1 / Fold change vs veh, PPFIA1 / RFU, MAT2A / Fold change vs veh, MAT2A / RFU, CCT5 / Fold change vs veh, CCT5 / RFU, WDR92 / Fold change vs veh, WDR92 / RFU, CUX1 / Fold change vs veh, CUX1 / RFU, TTC7A / Fold change vs veh, TTC7A / RFU, TMEM135 / Fold change vs veh, TMEM135 / RFU, DEPTOR / Fold change vs veh, DEPTOR / RFU, CPM / Fold change vs veh, CPM / RFU, DNAJB6 / Fold change vs veh, DNAJB6 / RFU, CACNA2D3 / Fold change vs veh, CACNA2D3 / RFU, DTX4 / Fold change vs veh, DTX4 / RFU, TFCP2 / Fold change vs veh, TFCP2 / RFU, GMCL1 /// GMCL1P1 / Fold change vs veh, GMCL1 /// GMCL1P1 / RFU, AEBP2 / Fold change vs veh, AEBP2 / RFU, SNHG1 /// SNORD22 /// SNORD25 /// SNORD26 /// SNORD27 /// SNORD28 /// SNORD29 /// SNORD31 / Fold change vs veh, SNHG1 /// SNORD22 /// SNORD25 /// SNORD26 /// SNORD27 /// SNORD28 /// SNORD29 /// SNORD31 / Fold change (Aza/veh), C12orf56 (ProbeSet 11735607_a_at) / Fold change (ACY-1035/veh), C12orf56 (ProbeSet 11735607_a_at) / Fold change (Aza/veh), FGFR1OP (ProbeSet 11751329_s_at) / Fold change (ACY-1035/veh), FGFR1OP (ProbeSet 11751329_s_at) / Fold change (Aza/veh), VPS36 (ProbeSet 11739960_a_at) / Fold change (ACY-1035/veh), VPS36 (ProbeSet 11739960_a_at) / RFU SYPL1 (11715823_x_at) / Fold change /veh SYPL1 (11715823_x_at) / RFU IGFBP7 (11715501_s_at) / Fold change /veh IGFBP7 (11715501_s_at) / RFU REEP3 (11722064_at) / Fold change /veh REEP3 (11722064_at) / RFU IGLL1 (11728026_x_at) / Fold change /veh IGLL1 (11728026_x_at): dose or concentration left out as unconfirmed
Details: ProbeSet 11743510_at; LIST D

Nc1ncn([C@@H]2O[C@H](CO)[C@@H](O)[C@H]2O)c(=O)n1 [azacitidine]
Fold change vs veh, UFL1: 0.83
